# Measurements taken from patent US4141972A, “Purine nucleoside 5'-phosphate (mono, di or tri) 3'(2')-diphosphates and processes for their preparation” (priority 1974, dated 1979).
# Tests used:
# [1] = tested on: nucleotide pyrophosphotransferase, enzymes obtained from the six actinomycetes (Streptomyces adephospholyticus A4668 ATCC 31122, St. aspergilloides ATCC 14808 …); test: Inhibitory action of nucleosides, nucleotides, bases and general enzyme inhibitors on nucleotide pyrophosphotransferase; type: biochemical
# Experimental: (1) Inorganic phosphate determination by a modification of Nakamura's method: The standard reaction mixture contained 0.25 M glycine-NaOH buffer (pH 10.0), 0.2 ml.; 0.05 M MgCl2, 0.05 ml.; 0.05 M ATP, 0.05 ml.; the enzyme solution (to be diluted by buffer if necessary), 0.1 ml.; and distilled water, 0.1 ml. in a final volume of 0.5 ml. After incubation at 37° C. for 10 minutes, the reaction was terminated by adding 0.5 ml. of 0.2 N acetic acid, and chilling on ice. Immediately, 3 ml. of developing reagent (amidol-molybdate) was added and the mixture was allowed to stand for 10 minutes at 37° C. The optical density was measured at 750 nm and the moles of Pi released were calculated using the standard curve for Pi.
# The reaction mixture contained 20 mM adenosine-8-3H-triphosphate (2 mCi/m mole), 5 mM MgCl2, 62.5 mM glycine-NaOH buffer (pH 10.0) and 0.1 ml. of enzyme solution to give a total volume of 0.2 ml. The mixture was incubated at 37° C. for 10 minutes and the incubation was terminated by addition of 0.01 ml. of 1 N acetic acid. Twenty microliters of the reaction mixture were spotted on a polyethyleneimine (PEI) cellulose F thin layer sheet (E. Merck AG), dried and developed in 0.75 M KH2 PO4, pH 3.4, for two hours at room temperature. After chromatography the sheets were dried and exposed to ultraviolet light provided by a Manasul UV lamp to localize the pppApp and AMP formed. The spots on the chromatograms corresponding to pppApp and AMP were cut out and placed in a scintillation vial containing 0.5 ml. of 0.1 N HCl. Vials were boiled for 15 minutes to elute nucleotides adsorbed on the PEI-cellulose and radioactivity was measured by 10 ml. of BRAY Solution in a liquid scintillation counter. A unit of enzyme activity is defined as the amount of enzyme forming 1μ mole of pppApp or AMP per minute under the above condition.
# Inhibitory actions of 40 substances which are general enzyme inhibitors such as nucleosides, nucleotides and their bases were examined for their effect on the enzymes obtained from the six actinomycetes.
# L1210 cells = test: Effect of nucleotides on the life span of mice inoculated with L1210 cells; type: in vivo; settings: for 30 days survivors / MST (mean survival time) / T/C: L1210, mice
# From the text: The characteristic of the said nucleotide pyrophosphotransferase is that it inhibits the growth of Hela S3, L1210 and L5178Y cells in culture at a relatively low concentration, 5 to 10 units/ml. […] The nucleotide or enzyme is combined with a conventional pharmaceutically acceptable nontoxic carrier for intraperitoneal administration.
# Tumor: L1210, Sloan-Kettering line, 10^5 cells/head, i.p.
# MST: Mean survival time
# [2] = other nucleic acids, concentration not given
# [3] = 5 mg/kg.day i.p. once daily for 10 days
# [4] = 10 mg/kg.day i.p. once daily for 10 days
# [5] = 20 mg/kg.day i.p. once daily for 10 days
# [6] = BDF1 mice, L1210 i.p., i.p. once daily for 10 days
# [7] = 10 mM each, non-substrate nucleic acids
smiles,measurement,setting,value
O=c1ccn([C@@H]2O[C@H](CO)[C@@H](O)[C@H]2O)c(=O)[nH]1 [uridine],Inhibition of enzyme activity,[1]; [2],not inhibitory
Nc1ncnc2c1ncn2[C@@H]1O[C@H](COP(=O)(O)OP(=O)(O)OP(=O)(O)O)[C@@H](O)[C@H]1O [ATP 2Na],30 days survivors,L1210 cells; [3],0/5
same,MST (mean survival time),L1210 cells; [3],8.7 days
same,T/C,L1210 cells; [3],98%
same,30 days survivors,L1210 cells; [4],0/5
same,MST (mean survival time),L1210 cells; [4],9.2 days
same,T/C,L1210 cells; [4],103%
same,30 days survivors,L1210 cells; [5],0/5
same,MST (mean survival time),L1210 cells; [5],8.6 days
same,T/C,L1210 cells; [5],97%
same,Effect on lifespan of tumor-bearing mice,L1210 cells; [6],not effective
NC(=O)c1ccc[n+]([C@@H]2O[C@H](COP(=O)([O-])OP(=O)(O)OC[C@H]3O[C@@H](n4cnc5c(N)ncnc54)[C@H](O)[C@@H]3O)[C@@H](O)[C@H]2O)c1 [NAD],Inhibition of enzyme activity,[1]; [2],not inhibitory
Nc1nc2nc[nH]c2c(=O)[nH]1 [guanine],Inhibition of enzyme activity,[1]; [7],marked inhibition
Nc1nc2c(ncn2[C@H]2C[C@H](O)[C@@H](COP(=O)(O)OP(=O)(O)OP(=O)(O)O)O2)c(=O)[nH]1 [d-GTP],Inhibition of enzyme activity,[1]; [7],marked inhibition
OC[C@H]1O[C@@H](n2cnc3c(O)ncnc32)[C@H](O)[C@@H]1O [inosine],Inhibition of enzyme activity,[1]; [2],not inhibitory
Nc1nc2c(ncn2[C@H]2C[C@H](O)[C@@H](COP(=O)(O)OP(=O)(O)O)O2)c(=O)[nH]1 [d-GDP],Inhibition of enzyme activity,[1]; [7],marked inhibition
Nc1ccn([C@@H]2O[C@H](CO)[C@@H](O)[C@H]2O)c(=O)n1 [cytidine],Inhibition of enzyme activity,[1]; [2],not inhibitory
Nc1ncnc2c1ncn2[C@@H]1O[C@H](CO)[C@@H](O)[C@H]1O [adenosine],Inhibition of enzyme activity,[1]; [2],not inhibitory
Nc1cc[nH]c(=O)n1 [cytosine],Inhibition of enzyme activity,[1]; [2],not inhibitory
Nc1nc2c(ncn2[C@@H]2O[C@H](CO)[C@@H](O)[C@H]2O)c(=O)[nH]1 [guanosine],Inhibition of enzyme activity,[1]; [7],marked inhibition
Nc1ncnc2nc[nH]c12 [adenine],Inhibition of enzyme activity,[1]; [2],not inhibitory
O=c1[nH]c(=O)c2[nH]cnc2[nH]1 [xanthine],Inhibition of enzyme activity,[1]; [2],not inhibitory
"Nc1ncnc2c1ncn2[C@@H]1O[C@H](COP(=O)(O)OP(=O)(O)OP(=O)(O)O)[C@@H](OP(=O)(O)OP(=O)(O)O)[C@H]1O [pppApp 7Li, adenosine 5'-triphosphate 3' (2')-diphosphate]",30 days survivors,L1210 cells; [3],1/5
same,MST (mean survival time),L1210 cells; [3],14.0 days
same,T/C,L1210 cells; [3],157%
same,30 days survivors,L1210 cells; [4],1/5
same,MST (mean survival time),L1210 cells; [4],12.5 days
same,T/C,L1210 cells; [4],140%
same,30 days survivors,L1210 cells; [5],2/5
same,MST (mean survival time),L1210 cells; [5],16.8 days
same,T/C,L1210 cells; [5],189%
same,Accumulation of abdominal dropsy,L1210 cells; [6],distinctly suppressed
same,Effect on lifespan of tumor-bearing mice,L1210 cells; [6],prolonged the lifespan
same,Toxicity to the mice,L1210 cells; [6],without causing toxicity
O=c1[nH]cnc2nc[nH]c12 [hypoxanthine],Inhibition of enzyme activity,[1]; [2],not inhibitory
O=c1cc[nH]c(=O)[nH]1 [uracil],Inhibition of enzyme activity,[1]; [2],not inhibitory
Nc1ccn([C@@H]2O[C@H](COP(=O)(O)O)[C@@H](O)[C@H]2O)c(=O)n1 [CMP],Inhibition of enzyme activity,[1]; [2],not inhibitory
